From patent US4228298A, “15-Deoxy-16-hydroxy-16-fluoromethyl, difluoromethyl or trifluoromethyl prostaglandins of the E and F series” (American Cyanamid Company, priority 1979, dated 1980) come the findings set out here.

Structures are written as SMILES.

Holding throughout (type): in vivo
For test [1], the system named is bronchospasms elicited by acetylcholine. The test is described as follows: Konzett procedure, bronchodilator activity against bronchospasms elicited by intravenous acetylcholine. As to conditions: Cavia porcellus; spasmogen acetylcholine; three logarithmic cumulative intravenous doses; guinea-pigs; read-out: ED 50 (spasmogen Acetylcholine). How it is done: (§1) The bronchodilator activity for representative compounds of this invention was determined in Guinea-Pigs against bronchospasms elicited by intravenous injections of serotonin, histamine, and acetylcholine, by the Konzett procedure the details of which are those discussed by J. Lulling, P. Lievens, F. El Sayed and J. Prignot, Arzeimittel-Forschung 18, 995 (1968).
(§2) In the table which follows, bronchodilator activity for representative compounds of the invention against spasmogenic agents serotonin, histamine, and acetylcholine is expressed as an ED50 determined from the results obtained with three logarithmic cumulative intravenous doses.

Test [2] concerns bronchospasms elicited by histamine. The test is described as follows: Konzett procedure, bronchodilator activity against bronchospasms elicited by intravenous histamine. The conditions noted are these: Cavia porcellus; spasmogen histamine; three logarithmic cumulative intravenous doses; guinea-pigs; read-out: ED 50 (spasmogen Histamine). How it is done:
as §1, §2

In test [3] the test system is bronchospasms elicited by serotonin. Briefly: Konzett procedure, bronchodilator activity against bronchospasms elicited by intravenous serotonin. The conditions noted are these: Cavia porcellus; spasmogen serotonin; three logarithmic cumulative intravenous doses; guinea-pigs; read-out: ED 50 (spasmogen Serotonin). The procedure:
as §1, §2

For the compound `CCCCC(O)(C/C=C/[C@H]1[C@H](O)CC(=O)[C@@H]1C/C=C\CCCC(=O)O)C(F)F` (relative stereo) [dl-11α,16-dihydroxy-9-oxo-16-difluoromethyl-5-cis-13-trans prostadienoic acid], the ED50 in test [1] was 4.04 µg/kg; in test [2], 2.78 µg/kg; in test [3], 4.6 µg/kg.
`CCCCC(O)(C/C=C/[C@H]1[C@H](O)CC(=O)[C@@H]1C/C=C\CCCC(=O)O)C(F)(F)F` (relative stereo) [dl-11α,16-dihydroxy-9-oxo-16-trifluoromethyl-5-cis-13-trans prostadienoic acid]: the results for the ED50 in test [1], in test [2] and in test [3] were 10 µg/kg, 4.15 µg/kg and 7.96 µg/kg, respectively.
For `CCCCC(O)(CF)C/C=C/[C@H]1[C@H](O)CC(=O)[C@@H]1C/C=C\CCCC(=O)O` (relative stereo) [dl-11α,16-dihydroxy-9-oxo-16-fluoromethyl-5-cis-13-trans prostadienoic acid], in that order: 1.94 µg/kg, 2.57 µg/kg and 1.38 µg/kg.
